Measured values from article PMC11472313, “Development of Fragment-Based Inhibitors of the Bacterial Deacetylase LpxC with Low Nanomolar Activity” (Journal of Medicinal Chemistry, 2024).
Converted amounts (≈) assume the structure as drawn. “And” between values parts separate entries of the source, which are not always exact repeats. Identical values can stand only once.

Assays:
P. aeruginosa LpxC = molecular target: T1, P. aeruginosa LpxC (Pseudomonas aeruginosa, UniProt P47205); test: LC–MS/MS-based P. aeruginosa LpxC enzyme inhibition assay; format: biochemical; settings: from IC50 via Cheng–Prusoff
T1 construct: made in house; host or cells: E. coli BL21(DE3)
T1 sequence (P47205 whole entry): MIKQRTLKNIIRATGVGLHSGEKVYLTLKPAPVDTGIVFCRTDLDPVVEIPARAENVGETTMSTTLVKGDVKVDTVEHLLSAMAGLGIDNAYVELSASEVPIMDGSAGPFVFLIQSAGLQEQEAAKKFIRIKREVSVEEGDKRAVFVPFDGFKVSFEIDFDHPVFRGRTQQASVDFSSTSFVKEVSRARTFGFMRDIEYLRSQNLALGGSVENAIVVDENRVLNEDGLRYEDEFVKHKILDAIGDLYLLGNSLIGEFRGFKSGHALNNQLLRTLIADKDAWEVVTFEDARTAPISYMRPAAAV
Text: As Pseudomonas aeruginosa is one of the so-called ESKAPE pathogens,[56] being the leading cause of nosocomial infections throughout the world, and carbapenem-resistant P. aeruginosa strains were assigned the highest priority (priority 1: critical) within the “WHO priority pathogens list for R&D of new antibiotics” (WHO 2017),[57] new antibacterial agents combating these bacteria are urgently required. Thus, our newly developed LpxC inhibitors should be tested for inhibitory activity toward P. aeruginosa LpxC, which shares 57% sequence identity with E. coli LpxC.[28] Therefore, a liquid chromatography with tandem mass spectrometry (LC–MS/MS)-based P. aeruginosa LpxC assay was established. […] After incubation and subsequent termination of the enzymatic reaction, the samples were subjected to LC–MS/MS analysis. Following the chromatographic separation of substrate 1 and deacetylated product 2, the eluted compounds were ionized and subjected to fragmentation. Three multiple reaction monitoring (MRM) transitions were detected per compound [precursor ions: m/z (substrate 1) 832; m/z (deacetylated product 2) 790; product ions: m/z (product 1) 385, collision energy = −60 V; m/z (product 2) 159, collision energy = −80 V; m/z (product 3) 79, collision energy = −140 V]. The MRM transitions 832 → 79 of substrate 1 and 790 → 79 of product 2 were used as quantifiers; the other mass transitions were used as qualifiers.
The protocol of the LC–MS/MS-based P. aeruginosa LpxC assay was based on the E. coli LpxC C63A enzyme assay. Compared to the fluorescence-based enzyme assay, the substrate was diluted 1:10 and the inhibitors were diluted 1:4.
The wells in a black, nonbinding, 96-well fluorescence microplate (Greiner Bio One, Frickenhausen) were filled with 93 μL of 2.69 μM UDP-3-O-[(R)-3-hydroxymyristoyl]-N-acetylglucosamine in assay buffer [50 mM KH2PO4/K2HPO4 (pH = 7.5), 80 μM dithiothreitol, 0.02% Brij 35]. In order to assay the inhibitors at final concentrations from 5 nM up to 5 μM, 2 μL of a respective dilution of the compounds in DMSO were added. The addition of 5 μL of a solution of purified P. aeruginosa LpxC (5 μg mL^–1) in assay buffer led to final concentrations of 2.5 μM UDP-3-O-[(R)-3-hydroxymyristoyl]-N-acetylglucosamine, 7.5 nM P. aeruginosa LpxC, 2% DMSO, and from 5 nM up to 5 μM inhibitor. The microplate was incubated for 30 min at 37 °C in a plate shaker. Then, the biochemical reaction was stopped by adding 40 μL of 0.625 M hydrochloric acid. The reaction mixtures were further incubated for 10 min, sealed, and stored at −80 °C until analysis.
LC–MS/MS-Analysis. The reaction mixtures were separated by ultrahigh performance liquid-chromatography (1290 II Infinity UHPLC, Agilent Technologies), and the eluted compounds were analyzed by mass spectrometry using electrospray ionization in negative ion mode with a triple quadrupole linear ion trap mass spectrometer (QTRAP 5500, AB Sciex LLC).
To analyze the eluted compounds by mass spectrometry, a MRM method was applied. The specific parameters of this method are given in Table S2 (Supporting Information). After detection and selection of the precursor ions (1: m/z 832; 2: m/z 790), both analytes were fragmented, leading to three identical product ions [m/z (product 1) 385, collision energy = −60 V; m/z (product 2) 159, collision energy = −80 V; m/z (product 3) 79, collision energy = −140 V]. The mass transitions 832 → 79 (substrate 1) and 790 → 79 (product 2) were used as quantifiers; the other mass transitions were used as qualifiers. The ratio between substrate 1 and product 2 was quantified by comparing the peak areas of the quantifiers. The percentual inhibition caused by each inhibitor concentration was determined with respect to the amount of the product formed in the noninhibited reaction after 30 min.
Each assay was performed at least two times on separate days. […]

E. coli BL21(DE3) = test: MIC, broth microdilution; format: cell-based; settings: 20 h, 37 °C, LB; for MIC: Escherichia coli
Procedure: (§1) Besides measuring the inhibitory activities toward E. coli LpxC C63A, the antibacterial activities of the synthesized hydroxamic acids were evaluated by determining their minimal inhibitory concentrations (MIC) in broth dilution tests as well as by performing disc diffusion assays (Table 1).
(§2) The MIC values of the compounds were determined by means of the microdilution method using 96-well plates.
(§3) The overnight suspension was diluted 1:1000 in fresh LB. 10 μL of a 2-fold dilution series of the compounds in DMSO and 90 μL of LB were dispensed to each well of a 96-well plate. Then, 100 μL of the inoculated medium was added, resulting in 5 × 10^5 cfu mL^–1, 5% DMSO, and a final concentration range of the test compounds between 64 and 0.016 μg mL^–1. The plates were incubated for 20 h at 37 °C. The MIC was defined as the lowest concentration of the compounds that prevented visible growth after incubation. Each assay was performed at least three times on separate days.

E. coli D22 = test: MIC, broth microdilution; format: cell-based; settings: Escherichia coli, 20 h, 37 °C, LB
Procedure: as §1, §2, §3

[1] = system: K. pneumoniae ATCC 700603; test: disc diffusion assay; format: cell-based, Klebsiella pneumoniae; settings: 0.15 μmol per 6 mm disc
Procedure: (§4) In the performed disc diffusion assays, indole derivatives (S)-13h, (S)-13i, and (S)-13j caused promising halos of growth inhibition.
(§5) The disc diffusion assays against E. coli TOP10 (Thermo Fisher, Waltham, USA), E. coli ATCC 35218, K. pneumoniae ATCC 700603, and P. aeruginosa ATCC 27853 were performed as follows: the bacteria were grown overnight on a Columbia blood agar plate (Oxoid, Basingstoke, UK), and one colony was suspended in sterile saline to yield a suspension of 0.5 McFarland standard. Using a sterile swab, the suspension was spread evenly onto Mueller–Hinton agar (Oxoid, Basingstoke, UK). 0.15 μmol of each compound (dissolved in 10 μL DMSO) was applied onto circular 6 mm diameter filter paper disks, which were then placed on the agar. After incubating the agar plates for 20 h at 37 °C, the diameter of the zone of growth inhibition was measured for each compound.

E. coli ATCC 35218 = test: disc diffusion assay; format: cell-based; settings: 0.15 μmol per 6 mm disc
Procedure: as §4, §5

E. coli TOP10 = test: disc diffusion assay; format: cell-based; settings: 0.15 μmol per 6 mm disc
Procedure: as §4, §5

P. aeruginosa ATCC 27853 = test: disc diffusion assay; format: cell-based; settings: 0.15 μmol per 6 mm disc
Procedure: as §4, §5

SMILES | Ki (P. aeruginosa LpxC) | MIC (E. coli BL21(DE3)) [µg/mL] | MIC (E. coli D22) [µg/mL] | Inhibition zone K. pneumoniae ATCC 700603 [1] [mm] | Inhibition zone E. coli ATCC 35218 (E. coli ATCC 35218) [mm] | Inhibition zone E. coli TOP 10 (E. coli TOP10) [mm] | Inhibition zone P. aeruginosa ATCC 27853 (P. aeruginosa ATCC 27853) [mm] | MIC E. coli BL21(DE3) (E. coli BL21(DE3)) [µg/mL]
O=C(NO)[C@H](COCc1ccccc1)OCc1ccc(C#Cc2ccc(CN3CCOCC3)cc2)cc1 [(S)-11a, (S)-3-(Benzyloxy)-N-hydroxy-2-[(4-{[4-(morpholinomethyl)phenyl]ethynyl}benzyl)oxy]propanamide] | 725 ± 335 nM | > 32 | 0.5 (≈ 0.999 µM) | – | – | – | – | –
O=C(NO)[C@H](CNCc1ccccc1)OCc1ccc(C#Cc2ccc(CN3CCOCC3)cc2)cc1 [(S)-12a, (S)-3-(Benzylamino)-N-hydroxy-2-[(4-{[4-(morpholinomethyl)phenyl]ethynyl}benzyl)oxy]propanamide] | 862 ± 70 nM | 16 (≈ 32 µM) | 0.5 (≈ 1 µM) | – | – | – | – | –
O=C(NC[C@H](OCc1ccc(C#Cc2ccc(CN3CCOCC3)cc2)cc1)C(=O)NO)c1ccccc1 [(S)-13a, (S)-N-{3-(Hydroxyamino)-2-[(4-{[4-(morpholinomethyl)phenyl]ethynyl}benzyl)oxy]-3-oxopropyl}benzamide] | 58.2 ± 0.1 nM | 8 (≈ 15.6 µM) | 0.13 (≈ 0.253 µM) | 7.0 ± 1.0 | 19.3 ± 0.6 | 23.3 ± 0.6 | 7.0 ± 1.0 | –
O=C(NC[C@H](OCc1ccc(C#Cc2ccc(CN3CCOCC3)cc2)cc1)C(=O)NO)c1cccc(-c2ccccc2)c1 [(S)-13c] | 149 ± 14 nM | > 16 | 0.13 (≈ 0.22 µM) | <6 | 7.7 ± 1.5 | 8.0 ± 0 | 6.3 ± 0.6 | –
O=C(NC[C@H](OCc1ccc(C#Cc2ccc(CN3CCOCC3)cc2)cc1)C(=O)NO)c1ccc(Oc2ccccc2)cc1 [(S)-13d] | 196 ± 18 nM | > 16 | 0.25 (≈ 0.413 µM) | <6 | 7.0 ± 1.0 | <6 | 6.3 ± 0.6 | –
O=C(NC[C@H](OCc1ccc(C#Cc2ccc(CN3CCOCC3)cc2)cc1)C(=O)NO)c1ccc2ccccc2n1 [(S)-13e] | 168 ± 8 nM | > 16 | 0.25 (≈ 0.443 µM) | <6 | 7.7 ± 1.5 | 8.0 ± 0 | 6.3 ± 0.6 | –
O=C(NC[C@H](OCc1ccc(C#Cc2ccc(CN3CCOCC3)cc2)cc1)C(=O)NO)c1cnc2ccccc2c1 [(S)-13f] | 91.1 ± 17.5 nM | > 16 | 0.25 (≈ 0.443 µM) | <6 | 15.0 ± 0 | 18.0 ± 6.0 | <6 | –
O=C(NC[C@H](OCc1ccc(C#Cc2ccc(CN3CCOCC3)cc2)cc1)C(=O)NO)c1cc2ccccc2[nH]1 [(S)-13g] | 46 ± 16.4 nM | 4 to 8 (≈ 7.24 to 14.5 µM) | 0.063 (≈ 0.114 µM) | <6 | 10.7 ± 0.6 | 16.0 ± 6.1 | <6 | 8.0 (≈ 14.5 µM)
O=C(NC[C@H](OCc1ccc(C#Cc2ccc(CN3CCOCC3)cc2)cc1)C(=O)NO)c1c[nH]c2ccccc12 [(S)-13h] | 5.91 ± 1.47 nM | 1 to 4 (≈ 1.81 to 7.24 µM) | 0.031 (≈ 0.0561 µM) | 6.7 ± 1.2 | 19.0 ± 1.0 | 18.7 ± 5.8 | 7.0 ± 1.0 | 1.0 (≈ 1.81 µM)
O=C(NC[C@H](OCc1ccc(C#Cc2ccc(CN3CCOCC3)cc2)cc1)C(=O)NO)c1cccc2[nH]ccc12 [(S)-13i] | 10.3 ± 2 nM | – | 0.031 (≈ 0.0561 µM) | 7.3 ± 1.2 | 17.0 ± 3.5 | 23.0 ± 1.0 | 6.3 ± 0.6 | –
O=C(NC[C@H](OCc1ccc(C#Cc2ccc(CN3CCOCC3)cc2)cc1)C(=O)NO)c1ccc2[nH]ccc2c1 [(S)-13j] | 5.6 nM and 5.58 nM | 1 to 4 (≈ 1.81 to 7.24 µM) | 0.031 (≈ 0.0561 µM) | 8.0 ± 1.7 | 21.0 ± 1.0 | 22.3 ± 3.8 | 8.3 ± 0.6 | 2.0 (≈ 3.62 µM)
O=C(NC[C@H](OCc1ccc(C#Cc2ccc(CN3CCOCC3)cc2)cc1)C(=O)NO)c1ccc[nH]1 [(S)-13k] | 29 ± 7.6 nM | 4 to 8 (≈ 7.96 to 15.9 µM) | 0.063 (≈ 0.125 µM) | 9.5 ± 0.7 | 23.0 ± 1.4 | 27.0 ± 2.8 | 9.0 ± 1.4 | 4.0 (≈ 7.96 µM)
O=C(NC[C@H](OCc1ccc(C#Cc2ccc(CN3CCOCC3)cc2)cc1)C(=O)NO)c1cc[nH]n1 [(S)-13l] | 18 ± 2.9 nM | 4 to 8 (≈ 7.94 to 15.9 µM) | 0.063 (≈ 0.125 µM) | 11.5 ± 0.7 | 25.5 ± 0.7 | 30.5 ± 0.7 | 12.0 ± 0 | 4.0 (≈ 7.94 µM)
O=C(NC[C@H](OCc1ccc(C#Cc2ccc(CN3CCOCC3)cc2)cc1)C(=O)NO)c1cc(-c2ccccc2)[nH]n1 [(S)-13m] | 41.9 ± 18.5 nM | 4 to 8 (≈ 6.9 to 13.8 µM) | 0.063 (≈ 0.109 µM) | <6 | 13.0 ± 1.7 | 14.7 ± 0.6 | <6 | 8.0 (≈ 13.8 µM)
O=C(NO)[C@H](CN(Cc1ccccc1)Cc1ccccc1)OCc1ccc(C#Cc2ccc(CN3CCOCC3)cc2)cc1 [(S)-37, (S)-3-(Dibenzylamino)-N-hydroxy-2-[(4-{[4-(morpholinomethyl)phenyl]ethynyl}benzyl)oxy]propanamide] | > 3250 nM | > 16 | 16 (≈ 27.1 µM) | – | – | – | – | –
